Legend:
Type in all cases: ADME
Settings in all cases: 0.5 h
[1] = target: T1, Cytochrome P450 2C8 (Homo sapiens, UniProt P10632); test: Drug metabolism in supersomes expressing human recombinant CYP2C8 assessed as enzyme-mediated cyanide adduct formation at 100 uM after 30 mins measured per nmol of P450 by HPLC analysis in presence of KCN
T1 sequence (P10632 whole entry): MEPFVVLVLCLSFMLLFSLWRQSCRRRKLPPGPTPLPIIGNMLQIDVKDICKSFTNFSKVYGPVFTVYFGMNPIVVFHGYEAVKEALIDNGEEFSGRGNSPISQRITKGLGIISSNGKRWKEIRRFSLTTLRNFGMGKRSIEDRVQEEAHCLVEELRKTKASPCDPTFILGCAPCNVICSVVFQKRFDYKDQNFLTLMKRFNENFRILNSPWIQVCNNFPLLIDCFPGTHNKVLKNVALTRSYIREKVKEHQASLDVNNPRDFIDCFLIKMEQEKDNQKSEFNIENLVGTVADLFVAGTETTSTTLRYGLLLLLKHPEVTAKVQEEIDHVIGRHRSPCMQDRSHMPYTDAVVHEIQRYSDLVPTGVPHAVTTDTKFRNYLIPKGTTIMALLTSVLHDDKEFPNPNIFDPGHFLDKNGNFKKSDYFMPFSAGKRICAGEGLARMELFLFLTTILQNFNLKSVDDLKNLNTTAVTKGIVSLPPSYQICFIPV

[2] = target: T2, Cytochrome P450 1A1 (Homo sapiens, UniProt P04798); test: Drug metabolism in supersomes expressing human recombinant CYP1A1 assessed as enzyme-mediated N-desmethylclozapine metabolite formation at 100 uM after 30 mins measured per nmol of P450 by HPLC analysis
T2 sequence (P04798 whole entry): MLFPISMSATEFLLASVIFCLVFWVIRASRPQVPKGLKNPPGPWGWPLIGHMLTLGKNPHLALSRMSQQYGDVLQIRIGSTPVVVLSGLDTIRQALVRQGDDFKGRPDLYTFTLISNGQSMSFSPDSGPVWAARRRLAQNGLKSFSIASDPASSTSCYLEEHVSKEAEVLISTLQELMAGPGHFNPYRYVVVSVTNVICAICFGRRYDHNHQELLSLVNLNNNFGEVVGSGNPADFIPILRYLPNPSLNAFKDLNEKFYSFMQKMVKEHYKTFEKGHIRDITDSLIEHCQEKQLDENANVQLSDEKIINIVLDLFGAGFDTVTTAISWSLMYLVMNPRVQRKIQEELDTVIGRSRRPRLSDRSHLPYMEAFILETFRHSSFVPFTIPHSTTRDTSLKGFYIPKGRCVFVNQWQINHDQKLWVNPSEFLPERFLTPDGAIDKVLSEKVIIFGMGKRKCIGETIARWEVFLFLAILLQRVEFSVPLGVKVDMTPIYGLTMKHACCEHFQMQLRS

[3] = target: Cytochrome P450 2C19 (Homo sapiens, UniProt P33261); test: Drug metabolism in supersomes expressing human recombinant CYP2C19 assessed as enzyme-mediated clozapine-N-oxide metabolite formation at 10 uM after 30 mins measured per nmol of P450 by HPLC analysis
[4] = target: Cytochrome P450 2D6 (Homo sapiens, UniProt P10635); test: Drug metabolism in supersomes expressing human recombinant CYP2D6 assessed as enzyme-mediated N-desmethylclozapine metabolite formation at 10 uM after 30 mins measured per nmol of P450 by HPLC analysis
[5] = target: T2, Cytochrome P450 1A1; test: Drug metabolism in supersomes expressing human recombinant CYP1A1 assessed as enzyme-mediated clozapine-N-oxide metabolite formation at 10 uM after 30 mins measured per nmol of P450 by HPLC analysis
[6] = target: Cytochrome P450 2C9 (Homo sapiens, UniProt P11712); test: Drug metabolism in supersomes expressing human recombinant CYP2C9 assessed as enzyme-mediated N-desmethylclozapine metabolite formation at 10 uM after 30 mins measured per nmol of P450 by HPLC analysis
[7] = target: T2, Cytochrome P450 1A1; test: Drug metabolism in supersomes expressing human recombinant CYP1A1 assessed as enzyme-mediated N-desmethylclozapine metabolite formation at 10 uM after 30 mins measured per nmol of P450 by HPLC analysis
[8] = target: T2, Cytochrome P450 1A1; test: Drug metabolism in supersomes expressing human recombinant CYP1A1 assessed as enzyme-mediated clozapine-N-oxide metabolite formation at 100 uM after 30 mins measured per nmol of P450 by HPLC analysis
[9] = target: T3, Cytochrome P450 1B1 (Homo sapiens, UniProt Q16678); test: Drug metabolism in supersomes expressing human recombinant CYP1B1 assessed as enzyme-mediated cyanide adduct formation at 100 uM after 30 mins measured per nmol of P450 by HPLC analysis in presence of KCN
T3 sequence (Q16678 whole entry): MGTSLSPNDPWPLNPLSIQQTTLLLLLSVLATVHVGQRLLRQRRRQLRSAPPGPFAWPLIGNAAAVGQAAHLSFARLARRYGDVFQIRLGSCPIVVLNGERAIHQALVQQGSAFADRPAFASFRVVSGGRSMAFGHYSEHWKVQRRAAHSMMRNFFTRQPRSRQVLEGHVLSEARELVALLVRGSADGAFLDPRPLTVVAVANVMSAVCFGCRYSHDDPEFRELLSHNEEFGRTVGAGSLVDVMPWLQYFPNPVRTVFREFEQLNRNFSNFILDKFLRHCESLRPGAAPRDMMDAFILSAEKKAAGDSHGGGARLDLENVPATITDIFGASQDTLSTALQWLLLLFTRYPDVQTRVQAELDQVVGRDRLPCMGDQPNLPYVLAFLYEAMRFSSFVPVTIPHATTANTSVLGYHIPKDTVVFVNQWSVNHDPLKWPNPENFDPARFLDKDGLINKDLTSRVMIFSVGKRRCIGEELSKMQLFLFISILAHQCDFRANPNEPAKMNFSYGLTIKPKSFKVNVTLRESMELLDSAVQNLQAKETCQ

[10] = target: T4, Cytochrome P450 1A2 (Homo sapiens, UniProt P05177); test: Drug metabolism in supersomes expressing human recombinant CYP1A2 assessed as enzyme-mediated cyanide adduct formation at 100 uM after 30 mins measured per nmol of P450 by HPLC analysis in presence of KCN
T4 sequence (P05177 whole entry): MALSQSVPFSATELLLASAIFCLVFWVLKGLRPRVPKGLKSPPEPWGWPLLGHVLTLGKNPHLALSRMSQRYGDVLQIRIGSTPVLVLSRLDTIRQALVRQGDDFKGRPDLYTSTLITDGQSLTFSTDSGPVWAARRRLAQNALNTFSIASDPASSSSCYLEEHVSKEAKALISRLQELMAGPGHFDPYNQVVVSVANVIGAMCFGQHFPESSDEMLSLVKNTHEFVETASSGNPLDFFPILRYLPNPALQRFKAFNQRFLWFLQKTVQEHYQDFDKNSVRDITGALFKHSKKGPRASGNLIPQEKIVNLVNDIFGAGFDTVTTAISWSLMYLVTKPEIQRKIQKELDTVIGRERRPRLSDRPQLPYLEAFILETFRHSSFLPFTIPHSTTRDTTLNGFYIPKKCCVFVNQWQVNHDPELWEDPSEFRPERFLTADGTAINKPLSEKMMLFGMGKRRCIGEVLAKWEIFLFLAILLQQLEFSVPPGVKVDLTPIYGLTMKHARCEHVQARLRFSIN

Sequence of Cytochrome P450 2C19 (P33261 whole entry): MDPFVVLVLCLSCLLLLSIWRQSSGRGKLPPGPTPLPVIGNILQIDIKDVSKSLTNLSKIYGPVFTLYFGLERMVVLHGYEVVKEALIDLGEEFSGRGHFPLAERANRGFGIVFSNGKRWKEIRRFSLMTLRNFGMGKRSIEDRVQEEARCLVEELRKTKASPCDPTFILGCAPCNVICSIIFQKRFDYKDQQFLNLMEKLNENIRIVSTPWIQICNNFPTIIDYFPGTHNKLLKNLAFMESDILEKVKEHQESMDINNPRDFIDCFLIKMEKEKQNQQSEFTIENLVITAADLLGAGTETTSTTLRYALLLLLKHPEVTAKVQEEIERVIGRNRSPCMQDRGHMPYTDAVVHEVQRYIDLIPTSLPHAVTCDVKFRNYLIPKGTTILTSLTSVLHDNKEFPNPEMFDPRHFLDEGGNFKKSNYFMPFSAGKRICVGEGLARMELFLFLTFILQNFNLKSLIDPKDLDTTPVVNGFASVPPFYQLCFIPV
Sequence of Cytochrome P450 2D6 (P10635 whole entry): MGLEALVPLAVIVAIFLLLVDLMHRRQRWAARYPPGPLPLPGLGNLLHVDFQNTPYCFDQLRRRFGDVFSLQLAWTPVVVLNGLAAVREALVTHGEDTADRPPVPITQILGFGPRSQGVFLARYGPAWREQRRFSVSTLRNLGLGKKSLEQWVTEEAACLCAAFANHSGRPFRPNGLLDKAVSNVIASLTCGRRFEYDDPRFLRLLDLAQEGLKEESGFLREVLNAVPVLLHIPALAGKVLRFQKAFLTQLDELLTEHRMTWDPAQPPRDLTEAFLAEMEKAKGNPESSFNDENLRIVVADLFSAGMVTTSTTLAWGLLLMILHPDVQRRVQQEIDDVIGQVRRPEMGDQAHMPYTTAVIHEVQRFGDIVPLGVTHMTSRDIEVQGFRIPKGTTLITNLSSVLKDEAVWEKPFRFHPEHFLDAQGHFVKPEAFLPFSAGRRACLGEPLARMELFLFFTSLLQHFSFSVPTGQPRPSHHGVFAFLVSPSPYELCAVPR
Sequence of Cytochrome P450 2C9 (P11712 whole entry): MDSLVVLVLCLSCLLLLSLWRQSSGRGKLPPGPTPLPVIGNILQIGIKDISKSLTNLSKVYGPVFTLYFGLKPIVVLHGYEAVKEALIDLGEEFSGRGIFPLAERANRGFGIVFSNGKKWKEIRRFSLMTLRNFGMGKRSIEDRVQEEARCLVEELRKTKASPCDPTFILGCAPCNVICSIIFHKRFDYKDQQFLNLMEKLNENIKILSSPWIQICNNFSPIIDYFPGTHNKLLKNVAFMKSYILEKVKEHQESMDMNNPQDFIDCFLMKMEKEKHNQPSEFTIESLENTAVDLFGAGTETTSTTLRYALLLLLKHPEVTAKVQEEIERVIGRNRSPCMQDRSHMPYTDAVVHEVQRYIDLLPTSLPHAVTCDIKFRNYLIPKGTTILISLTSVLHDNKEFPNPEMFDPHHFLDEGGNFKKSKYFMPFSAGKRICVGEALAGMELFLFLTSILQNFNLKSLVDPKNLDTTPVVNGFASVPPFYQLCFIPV

Compound: CN1CCN(C2=Nc3cc(Cl)ccc3Nc3ccccc32)CC1 [CLOZAPINE]
- Drug metabolism [1]: 0.058 nmol/min
- Drug metabolism [2]: 0.56 nmol/min
- Drug metabolism [3]: 0.71 nmol/min/nmol P450
- Drug metabolism [4]: 8.43 nmol/min/nmol P450
- Drug metabolism [5]: 0.24 nmol/min
- Drug metabolism [6]: 0.33 nmol/min
- Drug metabolism [7]: 0.64 nmol/min
- Drug metabolism [8]: 0.2 nmol/min
- Drug metabolism [9]: 0.01 nmol/min
- Drug metabolism [10]: 0.2 nmol/min

— ChEMBL document CHEMBL3525934 (Drug Metab Dispos, 2013)
